System: −2 DAA WT ovaries
Experiment: RNA-seq of −2 DAA WT ovaries treated with 2,4-D vs mock
Format: in vivo, Tomato (Solanum lycopersicum)
Conditions: 100 μM 2,4-D, fold change >1.5, p<0.05
Experimental: Tomato plants were grown in greenhouse with 16 h day/8 h night light cycle as described previously (Hu et al.). Parthenocarpy test was done as described previously in Hu et al., with some modifications: −2 DAA flowers on mature tomato plants (2-6 weeks after first flowering) were emasculated and recorded fruit growth 5 weeks later; fruit diameter of at least 1 cm was considered as parthenocarpy. For fruit yield analysis, the number of flowers were counted for each young flower cluster of ˜two-month-old plants, and fruits developed on these clusters were harvested individually and weighed when they were at the red ripe stage. Whole plant phenotypes including plant height, internode numbers and length, and leaf morphology were recorded 5 weeks after sowing. For 2,4-D treatment, 10 μl of 100 μM 2,4-D, or mock solvent (5% MeOH, 0.1% Tween-20) was applied to −2 DAA ovaries of emasculated flowers. All statistical analyses were performed using Student's t-test.
Total RNAs were purified from −2 DAA ovaries of WT and 8a-1 8b-1, as well as −2 DAA WT ovaries treated with 100 μM 2,4-D for 2/6/24 h or mock treated (5% methanol, 0.1% Tween 20). RNA-Seq cDNA libraries (three biological repeats) were prepared with the QuantSeq 3′mRNA-Seq library prep kit FWD for Illumina (Lexogen). DNA sequencing was performed with Illumina Next-Seq500 High-Output 75 bp SR. Sequence alignment and DE (differential expression) analysis were done online at lexogen.bluebee.com. Heatmap was created in RStudio with plotly package. Co-regulated genes among 8a 8b and +2,4-D 2/6/24 h gene lists were then identified (fold change >1.5; p<0.1 for 8a 8b vs. WT; p<0.05 for +2,4-D vs. mock). Venn Diagrams were made using online tool at InteractiVenn.net^53. GO analysis was performed using agriGO v2 toolkit (Tian et al. agriGO v2.0: a GO analysis toolkit for the agricultural community, 2017 update. Nucleic Acids Res 45, W122-W129, (2017)). Heatmap analysis was made in R language with the plotly package. […]

SMILES: O=C(O)COc1ccc(Cl)cc1Cl [2,4-D]
- number of auxin-responsive differentially expressed genes (DEG) (2 h treatment vs mock): 1731
- number of auxin-responsive differentially expressed genes (DEG) (6 h treatment vs mock): 3262
- number of auxin-responsive differentially expressed genes (DEG) (24 h treatment vs mock): 3212
